Reference: patent US11603349B2, “Anti-fibrotic compounds” (Certa Therapeutics Pty Ltd, priority 2017, dated 2023)
pIC50: −log10 of the molar value.

Assays:
[1] = system: TGF-β induced [14C]-proline incorporation in rat mesangial cells; assay: [14C]-proline incorporation assay (collagen biosynthesis); format: cell-based; conditions: Rattus norvegicus, Mesangial cell, 44 h, inhibition of TGF-β1 (1 ng/ml) induced [14C]-proline incorporation, IRMC cells
[2] = MTS tetrazolium reduction cell viability assay; conditions: rat, rat mesangial cells (1097/IRMC cells), TGF-β1 stimulated, CC50 (μM), vs 1% DMSO vehicle

| SMILES | pIC50 [1] | CC50 at 48 h [2] |
| --- | --- | --- |
| C#CCOc1ccc(/C=C/C(=O)Nc2ccccc2-c2nnc(C)o2)cc1OC [Example 29, (E)-3-(3-methoxy-4-(prop-2-yn-1-yloxy)phenyl)-N-(2-(5-methyl-1,3,4-oxadiazol-2-yl)phenyl)-acrylamide] | 4.59 | > 300 µM |
| C#CCOc1ccc(/C=C/C(=O)Nc2ccccc2C(=O)NCCN(C)C)cc1OC [Example 30, (E)-N-(2-(dimethylamino)ethyl)-2-(3-(3-methoxy-4-(prop-2-yn 1 yloxy)phenyl)acrylamido) benzamide] | 4.93 | 37.2 µM |
| C#CCOc1ccc(/C=C/C(=O)Nc2ccccc2C(=O)Nc2nn[nH]n2)cc1OC [Example 31, (E)-2-(3-(3-methoxy-4-(prop-2-yn-1-yloxy)phenyl)acrylamido)-N-(2H-tetrazol-5-yl)benzamide] | 4.86 | > 300 µM |
| C#CCOc1ccc(/C=C/C(=O)Nc2ccccc2C(=O)NCCCN(C)C)cc1OC [Example 32, (E)-N-(3-(dimethylamino)propyl)-2-(3-(3-methoxy-4-(prop-2-yn-1-yloxy)phenyl)acrylamido) benzamide] | 4.56 | 32 µM |
| C#CCOc1ccc(/C=C/C(=O)Nc2ccccc2C(=O)NCCOC)cc1OC [Example 33, (E)-2-(3-(3-methoxy-4-(prop-2-yn-1-yloxy)phenyl)acrylamido)-N-(2-methoxyethyl)benzamide] | 4.53 | 199 µM |
| C#CCOc1ccc(/C=C/C(=O)Nc2ccccc2C(=O)NCCN2CCN(C)CC2)cc1OC [Example 34, (E)-2-(3-(3-methoxy-4-(prop-2-yn-1-yloxy)phenyl)acrylamido)-N-(2-(4-methylpiperazin-1-yl)ethyl)benzamide] | 4.55 | 37.3 µM |
| C#CCOc1ccc(/C=C/C(=O)Nc2ccccc2C(=O)NCCN2CCOCC2)cc1OC [Example 35, (E)-2-(3-(3-methoxy-4-(prop-2-yn-1-yloxy)phenyl)acrylamido)-N-(2-morpholinoethyl)benzamide] | 4.43 | 301 µM |
| C#CCOc1ccc(/C=C/C(=O)Nc2ccccc2C(=O)NC2CCN(C)CC2)cc1OC [Example 36, (E)-2-(3-(3-methoxy-4-(prop-2-yn-1-yloxy)phenyl)acrylamido)-N-(1-methylpiperidin-4-yl)benzamide] | 4.80 | 15.2 µM |
| C#CCOc1ccc(/C=C/C(=O)Nc2ccccc2C(=O)NCC2CCN(C)CC2)cc1OC [Example 37, (E)-2-(3-(3-methoxy-4-(prop-2-yn-1-yloxy)phenyl)acrylamido)-N-((1-methylpiperidin-4-yl)methyl)benzamide] | 4.74 | 29.2 µM |
| C#CCOc1ccc(/C=C/C(=O)Nc2ccccc2C(=O)NC2COC2)cc1OC [Example 38, (E)-2-(3-(3-methoxy-4-(prop-2-yn-1-yloxy)phenyl)acrylamido)-N-(oxetan-3-yl)benzamide] | 4.42 | 236 µM |
| C#CCOc1ccc(/C=C/C(=O)Nc2ccccc2C(=O)NCC2CCOC2)cc1OC (stereo not shown) [Example 39, (E)-2-(3-(3-methoxy-4-(prop-2-yn-1-yloxy)phenyl)acrylamido)-N-((tetrahydrofuran-3-yl)methyl)benzamide] | 4.32 | 85.8 µM |
| C#CCOc1ccc(/C=C/C(=O)Nc2ccccc2C(=O)NCc2cncn2C)cc1OC [Example 40, (E)-2-(3-(3-methoxy-4-(prop-2-yn-1-yloxy)phenyl)acrylamido)-N-((1-methyl-1H-imidazol-5-yl)methyl)benzamide] | 5.17 | > 300 µM |
| C#CCOc1ccc(/C=C/C(=O)Nc2ccccc2C(=O)NCc2ccccn2)cc1OC [Example 41, (E)-2-(3-(3-methoxy-4-(prop-2-yn-1-yloxy)phenyl)acrylamido)-N-(pyridin-2-ylmethyl)benzamide] | 4.60 | 341 µM |
| C#CCOc1ccc(/C=C/C(=O)Nc2ccccc2C(=O)NCCc2ccccn2)cc1OC [Example 42, (E)-2-(3-(3-methoxy-4-(prop-2-yn-1-yloxy)phenyl)acrylamido)-N-(2-(pyridin-2-yl)ethyl)benzamide] | 4.77 | 52 µM |
| C#CCOc1ccc(/C=C/C(=O)Nc2ccccc2C(=O)NCc2cccnc2)cc1OC [Example 43, (E)-2-(3-(3-methoxy-4-(prop-2-yn-1-yloxy)phenyl)acrylamido)-N-(pyridin-3-ylmethyl)benzamide] | 4.35 | > 300 µM |
| C#CCOc1ccc(/C=C/C(=O)Nc2ccccc2C(=O)Nc2ccncc2)cc1OC [Example 44, (E)-2-(3-(3-methoxy-4-(prop-2-yn-1-yloxy)phenyl)acrylamido)-N-(pyridin-4-yl)benzamide] | 4.88 | 11.1 µM |
| C#CCOc1ccc(/C=C/C(=O)Nc2ccccc2C(=O)NCc2ccncc2)cc1OC [Example 45, (E)-2-(3-(3-methoxy-4-(prop-2-yn-1-yloxy)phenyl)acrylamido)-N-(pyridin-4-ylmethyl)benzamide] | 4.89 | 307 µM |
| C#CCOc1ccc(/C=C/C(=O)Nc2ccccc2C(=O)NCCc2ccncc2)cc1OC [Example 46, (E)-2-(3-(3-methoxy-4-(prop-2-yn-1-yloxy)phenyl)acrylamido)-N-(2-(pyridin-4-yl)ethyl)benzamide] | 4.33 | 186 µM |
| C#CCOc1ccc(/C=C/C(=O)Nc2ccccc2C(=O)Nc2cnn(C)c2)cc1OC [Example 47, (E)-2-(3-(3-methoxy-4-(prop-2-yn-1-yloxy)phenyl)acrylamido)-N-(1-methyl-1H-pyrazol-4-yl)benzamide] | 4.54 | > 300 µM |
| C#CCOc1ccc(/C=C/C(=O)Nc2ccccc2C(=O)Nc2ccn(C)n2)cc1OC [Example 48, (E)-2-(3-(3-methoxy-4-(prop-2-yn-1-yloxy)phenyl)acrylamido)-N-(1-methyl-1H-pyrazol-3-yl)benzamide] | 4.62 | 309 µM |

Further lines, with some results ahead:

| pIC50 [1] | SMILES | CC50 at 48 h [2] |
| --- | --- | --- |
| 4.60 | C#CCOc1ccc(/C=C/C(=O)Nc2ccccc2C(=O)NC2CCNCC2)cc1OC [Example 49, (E)-2-(3-(3-methoxy-4-(prop-2-yn-1-yloxy)phenyl)acrylamido)-N-(piperidin-4-yl)benzamide] | 30.6 µM |
| 4.32 | COc1cc(/C=C/C(=O)Nc2ccccc2C(=O)O)ccc1OCC1CCNCC1 [Example 50, (E)-2-(3-(3-methoxy-4-(piperidin-4-ylmethoxy)phenyl)acrylamido)benzoic acid] | 107 µM |
| 4.81 | COc1cc(/C=C/C(=O)Nc2ccccc2C(=O)O)ccc1OC1CCN(C)C1 (stereo not shown) [Example 51, (E)-2-(3-(3-methoxy-4-((1-methylpyrrolidin-3-yl)oxy)phenyl)acrylamido)benzoic acid] | > 300 µM |
| 4.95 | COc1cc(/C=C/C(=O)Nc2ccccc2C(=O)O)ccc1OCc1c(C)noc1C [Example 52, (E)-2-(3-(4-((3,5-dimethylisoxazol-4-yl)methoxy)-3-methoxyphenyl)acrylamido)benzoic acid] | 140 µM |
| 4.83 | COc1cc(/C=C/C(=O)Nc2ccccc2C(=O)O)ccc1OCc1cnn(C)c1 [Example 53, (E)-2-(3-(3-methoxy-4-((1-methyl-1H-pyrazol-4-yl)methoxy)phenyl)acrylamido)benzoic acid] | 226 µM |
| 4.62 | COc1cc(/C=C/C(=O)Nc2ccccc2C(=O)O)ccc1OCC1COC1 [Example 54, (E)-2-(3-(3-methoxy-4-(oxetan-3-ylmethoxy)phenyl)acrylamido)benzoic acid] | > 300 µM |
| 4.35 | COc1cc(/C=C/C(=O)Nc2ccccc2C(=O)O)ccc1OCc1ccccn1 [Example 55, (E)-2-(3-(3-methoxy-4-(pyridin-2-ylmethoxy)phenyl)acrylamido)benzoic acid] | 86.1 µM |
| 4.49 | COc1cc(/C=C/C(=O)Nc2ccccc2C(=O)O)ccc1OCCc1ccccn1 [Example 56, (E)-2-(3-(3-methoxy-4-(2-(pyridin-2-yl)ethoxy)phenyl)acrylamido)benzoic acid] | 150 µM |
| 5.03 | COc1cc(/C=C/C(=O)Nc2ccccc2C(=O)O)ccc1OCCc1cccnc1 [Example 57, (E)-2-(3-(3-methoxy-4-(2-(pyridin-3-yl)ethoxy)phenyl)acrylamido)benzoic acid] | > 76.6 µM |
| 4.41 | COc1cc(/C=C/C(=O)Nc2ccccc2C(=O)O)ccc1OCc1ccncc1 [Example 58, (E)-2-(3-(3-methoxy-4-(pyridin-4-ylmethoxy)phenyl)acrylamido)benzoic acid] | 266 µM |
| 4.92 | COc1cc(/C=C/C(=O)Nc2ccccc2C(=O)O)ccc1OCCc1ccncc1 [Example 59, (E)-2-(3-(3-methoxy-4-(2-(pyridin-4-yl)ethoxy)phenyl)acrylamido)benzoic acid] | 148 µM |
| 4.69 | COc1cc(/C=C/C(=O)Nc2ccccc2C(=O)O)ccc1OCc1ccnn1C [Example 60, (E)-2-(3-(3-methoxy-4-((1-methyl-1H-pyrazol-5-yl)methoxy)phenyl)acrylamido)benzoic acid] | 100 µM |
| 4.31 | COCCOc1cc(/C=C/C(=O)Nc2ccccc2C(=O)O)ccc1OC [Example 61, (E)-2-(3-(4-methoxy-3-(2-methoxyethoxy)phenyl)acrylamido)benzoic acid] | 276 µM |
| 4.31 | COc1ccc(/C=C/C(=O)Nc2ccccc2C(=O)O)cc1OCCc1ccccn1 [Example 62, (E)-2-(3-(4-methoxy-3-(2-(pyridin-2-yl)ethoxy)phenyl)acrylamido)benzoic acid] | 321 µM |
| 4.74 | COc1ccc(/C=C/C(=O)Nc2ccccc2C(=O)O)cc1OCc1cccnc1 [Example 63, (E)-2-(3-(4-methoxy-3-(pyridin-3-ylmethoxy)phenyl)acrylamido)benzoic acid] | 79.4 µM |
